Test [1] has as its system Isoniazide-resistant TB 242. Briefly: microbe, parasite or virus in culture. The test is classed as cell-based. The following applies: Mycobacterium tuberculosis.
The subject of test [2] is Rifampicin-resistant TB 261. Briefly: microbe, parasite or virus in culture. The following applies: Mycobacterium tuberculosis. The class given is cell-based.

Molecules are shown by their SMILES. In brackets after ≈: the same amount, converted by molar mass. A value given as a limit tells only on which side of the number the result lay.

From PMC6268079, “Synthesis and Biological Evaluation of 2-(3-Fluoro-4-nitro phenoxy)-N-phenylacetamide Derivatives as Novel Potential Affordable Antitubercular Agents” (Molecules, 2012) come the findings set out here.

For the compound `O=C(COc1ccc([N+](=O)[O-])c(F)c1)Nc1ccccc1[N+](=O)[O-]` [Compound 3m, 2-(3-Fluoro-4-nitrophenoxy)-N-(2-nitrophenyl)acetamide], the values for the MIC in test [1] and in test [2] were 32 µg/mL (≈ 95.5 µM) and 4 µg/mL (≈ 11.9 µM), respectively.
For the compound `COC(=O)COc1ccc(NC(=O)COc2ccc(C)cc2C)cc1` [I, methyl 2-(4-(2-(2,4-dimethylphenoxy)acetamido)phenoxy)acetate], the MIC in test [1] stood at 16 µg/mL (≈ 46.6 µM); in test [2] it was 4 µg/mL (≈ 11.6 µM).
Taken in the same sequence, the figures for `NNC(=O)c1ccncc1` [Isoniazide] were 0.5 µg/mL (≈ 3.65 µM) and 0.125 µg/mL (≈ 0.911 µM).
In the case of `CO[C@H]1/C=C/O[C@@]2(C)Oc3c(C)c(O)c4c(O)c(c(/C=N/N5CCN(C)CC5)c(O)c4c3C2=O)NC(=O)/C(C)=C\C=C\[C@H](C)[C@H](O)[C@@H](C)[C@@H](O)[C@@H](C)[C@H](OC(C)=O)[C@@H]1C` [Rifampicin], the MIC in test [1] was not above 0.25 µg/mL; in test [2] it was more than 32 µg/mL.
